Assay results from US6946259B2, “Compositions and methods for treating cells having double minute DNA” (The Salk Institute For Biological Studies, priority 1998, dated 2005).
Entries after “also recorded” stand apart in the source; their conditions may differ. Structures can show the parent of a compound that is named as a salt.

Key:
COLO 320DM cells [1] = test: Quantification of c-myc+ (DM-containing) micronuclei in COLO 320DM cells by FISH; format: cell-based, human; conditions: for micronucleation (frequency of c-myc+ micronuclei): COLO 320DM cells treated for 3 days; for micronucleation efficiency at concentrations that severely inhibited S-phase: COLO 320DM cells, 3 days, high drug concentrations
Experimental: (§1) FIGS. 3A and 3B show the effects of various drugs on induction of micronuclei and cell cycle distribution. COLO 320DM cells were treated for 3 days with inhibitors of DNA replication (aphidicolin (“APH”); deferoxamine (“Def”), guanazole (“Gua”); hydroxurea (“HU”); and PALA), repair (coumarin (“Cou”); nicotinamide (“NA”)) or the membrane active agent DMSO at the concentrations indicated. In FIG. 3A, the treated cells were fixed with methanol/acetic acid and hybridized with c-myc cosmid probe. The numbers of micronuclei that were stained brightly with c-myc probe were scored and expressed as “frequency of c-myc^+ micronuclei (%)” relative to the number of interphase nuclei scored (more than 1000 for each point). In FIG. 3B, the cells were pulse-labeled with BrdU (for 30 min) at the end of the drug treatment, and analyzed by flow cytometry as described below to determine the fraction of cells in G1, S, and G2/M.
Micronuclei containing DM sequences in COLO 320DM cells (FIGS. 2 and 3) were detected by preparing chromosome spreads using standard hypotonic swelling conditions (Lawce and Brown (1991)), followed by hybridization with a biotinylated c-myc cosmid probe as described previously (Shimizu, et al. (1996)). Total micronuclei (FIG. 3) were determined by staining chromosome spreads with DAPI (Sigma; 1 μg/ml in VectaShield, Vector Inc.). The adherent cells (WS1, RPE-h and their derivatives) were grown on cover slips, fixed with cold acetone (−20° C. for 5 min) followed by cold methanol (−20° C. for 5 min), re-hydrated with PBS and stained with DAPI (1 μg/ml in VectaShield). The numbers of total or DM-enriched micronuclei were scored using 60× or 100× objectives and Zeiss fluorescence microscope equipped with appropriate epifluorescence filters. The results are expressed as “Frequency of micronuclei (%)” relative to the number of interphase nuclei scored (at least 1000 for each point).

[2] = system: human and rodent cell lines; conditions: cited from earlier work
COLO 320DM cells [3] = test: Cell cycle distribution of COLO 320DM cells by BrdU/PI flow cytometry; format: cell-based, human; conditions: COLO 320DM cells treated for 3 days
Experimental: as §1
Cell cycle distribution was analyzed using flow cytometry as described previously (Yin, et al. (1992) and Di Leonardo, et al. (1994)). Cells treated with the indicated concentrations of drugs for the indicated times were labeled with 10 μM BrdU for 30 min. […] Samples were analyzed using a Becton Dickinson FACScan. […] Data was analyzed using Sun Display as described previously (Yin, et al. (1992) and Di Leonardo, et al. (1994)).

[4] = system: WS1 human diploid fibroblasts; test: Cell cycle distribution of WS1 fibroblasts by flow cytometry; format: cell-based; conditions: WS1 cells, drug for 3 days
Experimental: (§2) Wild type (wt) WS1 human diploid fibroblasts, or transformants expressing the neomycin resistance gene (neo) or both neo and the human papilloma virus E6 protein (E6) were generated by retroviral transduction. These cells were cultured in the absence or the presence of HU or PALA at the indicated concentrations for 3 days. […] The number of micronuclei were scored and expressed as the frequency of micronuclei (%) relative to the number of interphase nuclei scored (more than 1000 for each point). In FIG. 7B, cell cycle effects of these drugs were examined as in FIG. 2B. […] In FIG. 7C, progression through S-phase or M-phase was monitored by the incorporation of [^3H]thymidine (closed symbols) or the fraction of mitotic cells determined by microscopic detection of metaphase figures (open symbols). In FIG. 7D, the cells on the cover slips were fixed, stained with DAPI, and the frequencies of micronuclei relative to the number of interphase nuclei were scored. More than 500 nuclei were counted for each point and the results are expressed as mean±S.D for WS1 neo and WS1-E6 cells (3 independent determinations for each strain; the error bars for WS1 neo data points were smaller than the sizes of the symbols). Nuclear budding frequencies were determined on the same slides as used to determine micronucleation index (more than 1000 nuclei for each point). […]

WS1 E6 cells [5] = test: Cell cycle distribution of WS1 E6 fibroblasts by flow cytometry; format: cell-based, human; conditions: WS1 fibroblasts expressing E6, drug for 3 days
Experimental: as §2

COLO 320DM cells [6] = test: DM content per cell by competitive PCR amplification; format: cell-based, human; conditions: HU treatment, data not shown
COLO 320DM cells [7] = test: Apoptosis in COLO 320DM cells (TUNEL assay); format: cell-based, human; conditions: COLO 320DM cultures, prolonged incubation
Experimental: TUNEL assay was done according to a previously published procedure (Gavrieli, et al. (1992)) and modified as described below. In brief, COLO 320DM cells were fixed in 2% PFA (10 min at room temperature), and centrifuged onto a glass slide using a cytospin apparatus. The cells were further fixed in cold methanol (−20° C., 5 min) followed by cold acetone (−20° C., 5 min). The slides were rehydrated in PBS, then equilibrated in reaction buffer (200 mM sodium cacodylate, 1 mM MgCl2, 1 mM β-mercaptoethanol, pH 7.2) for 15 min at room temperature. The end-labeling reaction was done by incubating the slides with the reaction buffer containing 10 μM biotin-dUTP (Boehringer Mannheim GmbH, Germany), and 0.3 units/μl of terminal deoxynucleotidyl transferase (Toyobo Co., Osaka, Japan), for 60 min at 37° C. The slides were washed extensively, blocked with 20% FCS, and the incorporated biotin was detected using FITC conjugated streptavidin as in the protocol for FISH (see below). The slides were treated with RNAse A (100 μg/ml 37° C., for 20 min), counterstained with PI, and observed under the conditions used for FISH.

WS1 E6 cells [8] = test: Frequency of micronuclei (DAPI) in WS1 E6 fibroblasts; format: cell-based, human; conditions: WS1 fibroblasts expressing E6, drug for 3 days
Experimental: as §2

COLO 320DM cells [9] = test: Localization of DMs in interphase nuclei by FISH and confocal microscopy; format: cell-based, human; conditions: 100 μM HU for 3 days
Experimental: Preparation of probe from purified micronuclei was as described (Shimizu, et al. (1996)), except that DNA in the purified micronuclei was directly used for biotin-labeling by using BioPrime DNA Labeling System (Life Technologies Inc. Gaithersburg, Md.). FISH using standard methanol/acetic acid-fixed nuclei was performed as described previously (Shimizu, et al. (1996)). Assessments of DM localization by confocal microscopy required the following procedure to preserve the spherical shape of the nuclei. This protocol, based on that developed for human lymphocytes (Ferguson and Ward (1992) and Vourc'h, et al. (1993)), could not be applied directly to COLO 320DM due to severe nuclear aggregation. The modified procedure involves pelleting 10 ml of COLO 320DM cells by centrifugation at 260×g for 5 min, followed by complete removal of the supernatant. […] The acquired digital images were expressed as pseudocolors, and merged using Adobe Photoshop (Adobe Systems Inc., Mountain View, Calif.).
The locations of DMs in confocal nuclear sections were determined by measuring the distance from each of the hybridized signals to the center of the nucleus using the corresponding nuclear diameter as a unit length. […] The distances from this dot to the center of the nucleus and the nuclear diameter were determined. […] At the same time, the intensity of each signal was measured using an arbitrary unit scale. […]

[10] = system: WS1 human diploid fibroblasts; test: Frequency of micronuclei (DAPI) in WS1 normal diploid fibroblasts; format: cell-based; conditions: WS1 cells, drug for 3 days
Experimental: as §2

## O=c1ccc2ccccc2o1 [Coumarin, 1,2-benzopyrone]
COLO 320DM cells [1]
  micronucleation (frequency of c-myc+ micronuclei): no effect on micronucleation

## C[S+](C)[O-] [DMSO]
[2]; some tumor cell lines
  DM copy number: reduce DM copy number
COLO 320DM cells [3]
  cell cycle distribution (fraction of cells in G1, S, G2/M): without lengthening S-phase
COLO 320DM cells [1]
  micronucleation (frequency of c-myc+ micronuclei): increased micronucleation

## NC(=O)NO [HU, hydroxyurea]
[4]
  cell cycle effect: did not significantly affect the percentage of WS1 cells in S-phase
WS1 E6 cells [5]
  number of cells in S-phase: significant increase in the number of cells in S-phase
COLO 320DM cells [6]
  reduction of DM content per cell: approximately 3 fold
[2]; human and rodent cell lines
  loss rate of DMs: significantly increase the loss rate of DMs
COLO 320DM cells [7]
  apoptosis: apoptotic cells did arise
WS1 E6 cells [8]
  micronucleation rate: substantial further increase in micronucleation rate
COLO 320DM cells [9]
  nuclear position of DMs (peripheral localization): preferentially depleted DMs from the nuclear periphery; also recorded: Very few peripheral DMs were detected
COLO 320DM cells [1]
  micronucleation (frequency of c-myc+ micronuclei): substantial increases in micronucleation
[10]
  micronucleation rate: not increased

## O=C(O)C[C@H](NC(=O)CP(=O)(O)O)C(=O)O [PALA, N-phosphonacetyl-L-aspartate]
[4]
  cell cycle effect: induced a G1 cell cycle arrest
WS1 E6 cells [5]
  number of cells in S-phase: significant increase in the number of cells in S-phase
WS1 E6 cells [8]
  micronucleation rate: substantial further increase in micronucleation rate
COLO 320DM cells [1]
  micronucleation (frequency of c-myc+ micronuclei): substantial increases in micronucleation; also recorded: induces S-phase micronucleation
  micronucleation efficiency at concentrations that severely inhibited S-phase: sharp decrease in micronucleation efficiency
[10]
  micronucleation rate: not increased

## C[C@@]1(CO)[C@H](O)CC[C@@]2(C)[C@H]1CC[C@H]1C[C@@H]3C[C@@]12CC[C@]3(O)CO [aphidicolin, Aphidicolin]
COLO 320DM cells [1]
  micronucleation (frequency of c-myc+ micronuclei): substantial increases in micronucleation

## CC(=O)N(O)CCCCCNC(=O)CCC(=O)N(O)CCCCCNC(=O)CCC(=O)N(O)CCCCCN [deferoxamine, deferoxamine mesylate]
COLO 320DM cells [1]
  micronucleation (frequency of c-myc+ micronuclei): substantial increases in micronucleation
  micronucleation efficiency at concentrations that severely inhibited S-phase: sharp decrease in micronucleation efficiency

## Nc1n[nH]c(N)n1 [guanazole, 3,5-diamino-1,2,4-triazole]
COLO 320DM cells [1]
  micronucleation (frequency of c-myc+ micronuclei): substantial increases in micronucleation

## NC(=O)c1cccnc1 [nicotinamide]
COLO 320DM cells [3]
  cell cycle distribution (fraction of cells in G1, S, G2/M): significant increase in the G2 fraction
COLO 320DM cells [1]
  micronucleation (frequency of c-myc+ micronuclei): small increase
